A value given as a limit tells only on which side of the number the result lay.

Results on two molecules are retold here after BindingDB's records for patent US20230322789 (Broadenbio, 2023).

The test addresses Mitogen-activated protein kinase kinase kinase kinase 1 (Homo sapiens, UniProt Q92918). The experiment in a line: HPK1 Kinase Activity Inhibition Assay. The procedure: 1. HPK1 Kinase Activity Inhibition Test. The kinase activity of HPK1 is manifested as activity of autophosphorylation and phosphorylation of downstream substrates. In the process of autophosphorylation, additional substrates are not required, and ATP is consumed to generate ADP. […] Transfer 2 μL of 2×[…] kinase solution to 384 reaction plate, add 1 μL of the test compound to the 384 reaction plate (Greiner, 784075), centrifuge for 1 minute (1000 rpm/min), incubate at 25° C. for 10 minutes. […] of the 4×ATP mixture to a 384 reaction plate, centrifuge for 1 minute (1000 rpm/mm), and incubate at 25° C. for 60 minutes. In the reaction system, the final concentration of DMSO was […]. Transfer 4 μL of ADP-Glo to a 384 reaction plate, centrifuge for 1 minute (1000 rpm/min), and incubate at 25° C. for 40 minutes. Transfer 8 μL detection solution to a 384 reaction plate, centrifuge for 1 minute (1000 rpm/min), and incubate at 25° C. for 40 minutes. The […] signal was read using a Biotek multi-function plate reader, and the […] (half inhibitory concentration) of the compound was obtained using a four-coefficient nonlinear fitting formula.

Sequence of Mitogen-activated protein kinase kinase kinase kinase 1 (Q92918 whole entry): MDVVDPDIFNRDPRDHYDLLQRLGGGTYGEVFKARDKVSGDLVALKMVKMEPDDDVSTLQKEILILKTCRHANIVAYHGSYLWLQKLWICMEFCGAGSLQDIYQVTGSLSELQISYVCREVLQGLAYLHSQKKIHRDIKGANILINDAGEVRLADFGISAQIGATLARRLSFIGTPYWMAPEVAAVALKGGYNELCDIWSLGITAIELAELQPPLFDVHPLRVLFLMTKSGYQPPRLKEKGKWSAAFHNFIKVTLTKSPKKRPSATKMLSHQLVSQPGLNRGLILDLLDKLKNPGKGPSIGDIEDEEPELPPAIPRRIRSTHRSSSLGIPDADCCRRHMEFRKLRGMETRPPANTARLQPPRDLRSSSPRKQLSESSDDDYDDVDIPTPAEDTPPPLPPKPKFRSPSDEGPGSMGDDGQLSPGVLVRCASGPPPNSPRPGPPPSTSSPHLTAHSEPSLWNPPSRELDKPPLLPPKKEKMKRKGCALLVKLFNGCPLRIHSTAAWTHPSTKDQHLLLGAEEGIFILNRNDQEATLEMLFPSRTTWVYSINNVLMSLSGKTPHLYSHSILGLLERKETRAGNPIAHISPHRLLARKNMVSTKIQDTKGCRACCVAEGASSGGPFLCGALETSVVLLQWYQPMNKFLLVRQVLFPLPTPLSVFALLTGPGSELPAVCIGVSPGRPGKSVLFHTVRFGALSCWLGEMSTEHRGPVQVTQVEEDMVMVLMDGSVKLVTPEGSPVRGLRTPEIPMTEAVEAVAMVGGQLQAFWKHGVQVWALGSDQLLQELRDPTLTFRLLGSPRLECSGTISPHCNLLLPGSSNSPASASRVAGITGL

The term IC50 denotes the concentration needed to halve the response being measured. In the case of `CCc1cccc(F)c1-n1nc2c(-c3ccc(N4CCN(CC(C)(C)O)CC4)cc3)n[nH]c2cc1=O` [US20230322789, Compound 116], the IC50 was < 50 nM. The same measure for `Cc1cccc(F)c1-n1nc2c(-c3ccc(N4CCN5C(=O)OCC5C4)nc3)n[nH]c2cc1=O` (configuration not stated) [US20230322789, Compound 129]: < 50 nM.
